# Assay results published in US9732119B2, “Immunomodulators” (BRISTOL-MYERS SQUIBB COMPANY, priority 2014, dated 2017).
# Positions of bridges follow the written chain, without caps; N, C: chain ends. Non-standard residues stand in square brackets, D forms with d. Residues, ends and D or L forms follow the SMILES beside them. Trp(1-CH2COOH) = N[C@@H](Cc1cn(CC(=O)O)c2ccccc12)C(=O)O; Phe(4-Cl) = N[C@@H](Cc1ccc(Cl)cc1)C(=O)O; Phe(4-F) = N[C@@H](Cc1ccc(F)cc1)C(=O)O; Phe(4-Me) = Cc1ccc(C[C@H](N)C(=O)O)cc1; Hyp = O=C(O)[C@@H]1C[C@@H](O)CN1; Aad = N[C@@H](CCCC(=O)O)C(=O)O; NMeNle = CCCC[C@H](NC)C(=O)O; dOrn = NCCC[C@@H](N)C(=O)O; Pip = O=C(O)[C@@H]1CCCCN1; Dab = NCC[C@H](N)C(=O)O; Dap = NC[C@H](N)C(=O)O; Ava = NCCCCC(=O)O
# Target: T1, PD-1-Ig binding to PD-L1-TVMV-His (PD-L1-His) (Homo sapiens, UniProt Q9NZQ7)
# T1 construct: hPDL1(19-239)-TVMV-His; made in house; host or cells: HEK293T cells
# T1 sequence (Q9NZQ7 with tags, fused parts or gaps): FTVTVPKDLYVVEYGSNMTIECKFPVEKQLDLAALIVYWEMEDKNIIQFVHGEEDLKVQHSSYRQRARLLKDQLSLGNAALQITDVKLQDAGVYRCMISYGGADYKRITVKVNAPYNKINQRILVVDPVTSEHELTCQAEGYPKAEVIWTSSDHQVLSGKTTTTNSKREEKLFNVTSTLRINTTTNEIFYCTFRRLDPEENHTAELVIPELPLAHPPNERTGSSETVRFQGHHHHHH
# Assay: PD-1/PD-L1 Homogenous Time-Resolved Fluorescence (HTRF) binding assay
# Conditions: PD-1-Ig (20 nM) / PD-L1-His (10 nM); numeric values
# Summary of the method: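 HTRF competition: compound pre-incubated 15 min with PD-L1-His (10 nM final), then PD-1-Ig (20 nM final) added for 15 min in dPBS, 0.1% BSA, 0.05% Tween-20. Detection with Eu-cryptate anti-Ig (1 nM) and APC anti-His (20 nM) antibodies.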
row,IC50 [nM],Structure (SMILES)
1,12,CCCC[C@H]1C(=O)N(C)[C@@H](CCCC)C(=O)N[C@@H](CC(C)C)C(=O)NCCC[C@@H](N)C(=O)N[C@@H](Cc2ccc(F)cc2)C(=O)N2CCCC[C@H]2C(=O)N[C@@H](CC(N)=O)C(=O)N2CCC[C@H]2C(=O)N[C@@H](CN)C(=O)N[C@@H](CCC(=O)O)C(=O)N2C[C@H](O)C[C@H]2C(=O)N[C@@H](Cc2c[nH]c3ccccc23)C(=O)N[C@@H](CCN)C(=O)N[C@@H](Cc2cn(CC(=O)O)c3ccccc23)C(=O)N1C [Example 10570] (H-[dOrn][Phe(4-F)][Pip]NP[Dap]E[Hyp]W[Dab][Trp(1-CH2COOH)][NMeNle][NMeNle]L; lactam 1-C)

# Same assay, conditions: PD-1-Ig (20 nM) / PD-L1-His (10 nM); range classes
row,Structure (SMILES),IC50 [nM]
1,CCCC[C@H]1C(=O)N(C)[C@@H](CCCC)C(=O)N[C@@H](CC(C)C)C(=O)NCCC[C@@H](N)C(=O)N[C@@H](Cc2ccc(O)cc2)C(=O)N2CCCC[C@H]2C(=O)N[C@@H](CC(N)=O)C(=O)N2CCC[C@H]2C(=O)N[C@@H](CN)C(=O)N[C@@H](CC(C)C)C(=O)N2C[C@H](O)C[C@H]2C(=O)N[C@@H](Cc2c[nH]c3ccccc23)C(=O)N[C@@H](CCN)C(=O)N[C@@H](Cc2cn(CC(=O)O)c3ccccc23)C(=O)N1C [Example 10558] (H-[dOrn]Y[Pip]NP[Dap]L[Hyp]W[Dab][Trp(1-CH2COOH)][NMeNle][NMeNle]L; lactam 1-C),10 to 99
2,CCCC[C@H]1C(=O)N(C)[C@@H](CCCC)C(=O)N[C@@H](CC(C)C)C(=O)NCCC[C@@H](N)C(=O)N[C@@H](Cc2ccc(Cl)cc2)C(=O)N2CCCC[C@H]2C(=O)N[C@@H](CC(N)=O)C(=O)N2CCC[C@H]2C(=O)N[C@@H](CN)C(=O)N[C@@H](CC(C)C)C(=O)N2C[C@H](O)C[C@H]2C(=O)N[C@@H](Cc2c[nH]c3ccccc23)C(=O)N[C@@H](CCN)C(=O)N[C@@H](Cc2cn(CC(=O)O)c3ccccc23)C(=O)N1C [Example 10559] (H-[dOrn][Phe(4-Cl)][Pip]NP[Dap]L[Hyp]W[Dab][Trp(1-CH2COOH)][NMeNle][NMeNle]L; lactam 1-C),10 to 99
3,CCCC[C@H]1C(=O)N(C)[C@@H](CCCC)C(=O)N[C@@H](CC(C)C)C(=O)NCCC[C@@H](N)C(=O)N[C@@H](Cc2ccc(C)cc2)C(=O)N2CCCC[C@H]2C(=O)N[C@@H](CC(N)=O)C(=O)N2CCC[C@H]2C(=O)N[C@@H](CN)C(=O)N[C@@H](CCC(=O)O)C(=O)N2C[C@H](O)C[C@H]2C(=O)N[C@@H](Cc2c[nH]c3ccccc23)C(=O)N[C@@H](CCN)C(=O)N[C@@H](Cc2cn(CC(=O)O)c3ccccc23)C(=O)N1C [Example 10560] (H-[dOrn][Phe(4-Me)][Pip]NP[Dap]E[Hyp]W[Dab][Trp(1-CH2COOH)][NMeNle][NMeNle]L; lactam 1-C),10 to 99
4,CCCC[C@H]1C(=O)N(C)[C@@H](CCCC)C(=O)N[C@@H](CCC(=O)O)C(=O)N[C@H](C(N)=O)CCCC(=O)N[C@@H](Cc2ccc(C)cc2)C(=O)N2CCCC[C@H]2C(=O)N[C@@H](CC(N)=O)C(=O)N2CCC[C@H]2C(=O)N[C@@H](CN)C(=O)N[C@@H](CC(C)C)C(=O)N2C[C@H](O)C[C@H]2C(=O)N[C@@H](Cc2c[nH]c3ccccc23)C(=O)N[C@@H](CCN)C(=O)N[C@@H](Cc2cn(CC(=O)O)c3ccccc23)C(=O)N1C [Example 10562] ([Phe(4-Me)][Pip]NP[Dap]L[Hyp]W[Dab][Trp(1-CH2COOH)][NMeNle][NMeNle]E[Aad]-NH2; lactam N-14),10 to 99
5,CCCC[C@H]1C(=O)N(C)[C@@H](CCCC)C(=O)N[C@@H](CCC(=O)O)C(=O)N[C@H](C(N)=O)CCCC(=O)N[C@@H](Cc2ccc(F)cc2)C(=O)N2CCCC[C@H]2C(=O)N[C@@H](CC(N)=O)C(=O)N2CCC[C@H]2C(=O)N[C@@H](CN)C(=O)N[C@@H](CC(C)C)C(=O)N2C[C@H](O)C[C@H]2C(=O)N[C@@H](Cc2c[nH]c3ccccc23)C(=O)N[C@@H](CCN)C(=O)N[C@@H](Cc2cn(CC(=O)O)c3ccccc23)C(=O)N1C [Example 10564] ([Phe(4-F)][Pip]NP[Dap]L[Hyp]W[Dab][Trp(1-CH2COOH)][NMeNle][NMeNle]E[Aad]-NH2; lactam N-14),10 to 99
6,CCCC[C@H]1C(=O)N(C)[C@@H](CCCC)C(=O)N[C@@H](CC(C)C)C(=O)NCCC[C@@H](N)C(=O)N[C@@H](Cc2ccc(C)cc2)C(=O)N2CCCC[C@H]2C(=O)N[C@@H](CC(N)=O)C(=O)N2CCC[C@H]2C(=O)N[C@@H](CN)C(=O)N[C@@H](CC(C)C)C(=O)N2C[C@H](O)C[C@H]2C(=O)N[C@@H](Cc2c[nH]c3ccccc23)C(=O)N[C@@H](CCN)C(=O)N[C@@H](Cc2cn(CC(=O)O)c3ccccc23)C(=O)N1C [Example 10567] (H-[dOrn][Phe(4-Me)][Pip]NP[Dap]L[Hyp]W[Dab][Trp(1-CH2COOH)][NMeNle][NMeNle]L; lactam 1-C),10 to 99
7,CCCC[C@H]1C(=O)N(C)[C@@H](CCCC)C(=O)N[C@@H](CC(C)C)C(=O)NCCC[C@@H](N)C(=O)N[C@@H](Cc2ccc(OC)cc2)C(=O)N2CCCC[C@H]2C(=O)N[C@@H](CC(N)=O)C(=O)N2CCC[C@H]2C(=O)N[C@@H](CN)C(=O)N[C@@H](CCC(=O)O)C(=O)N2C[C@H](O)C[C@H]2C(=O)N[C@@H](Cc2c[nH]c3ccccc23)C(=O)N[C@@H](CCN)C(=O)N[C@@H](Cc2cn(CC(=O)O)c3ccccc23)C(=O)N1C [Example 10569] (H-[dOrn]Y(Me)[Pip]NP[Dap]E[Hyp]W[Dab][Trp(1-CH2COOH)][NMeNle][NMeNle]L; lactam 1-C),1 to 9.9
8,CCCC[C@H]1C(=O)N(C)[C@@H](CCCC)C(=O)N[C@@H](CC(C)C)C(=O)NCCC[C@@H](N)C(=O)N[C@@H](Cc2ccc(Cl)cc2)C(=O)N2CCCC[C@H]2C(=O)N[C@@H](CC(N)=O)C(=O)N2CCC[C@H]2C(=O)N[C@@H](CN)C(=O)N[C@@H](CCC(=O)O)C(=O)N2C[C@H](O)C[C@H]2C(=O)N[C@@H](Cc2c[nH]c3ccccc23)C(=O)N[C@@H](CCN)C(=O)N[C@@H](Cc2cn(CC(=O)O)c3ccccc23)C(=O)N1C [Example 10571] (H-[dOrn][Phe(4-Cl)][Pip]NP[Dap]E[Hyp]W[Dab][Trp(1-CH2COOH)][NMeNle][NMeNle]L; lactam 1-C),1 to 9.9
9,CCCC[C@H]1C(=O)N(C)[C@@H](CCCC)C(=O)N[C@@H](CC(C)C)C(=O)NCCCCC(=O)N[C@@H](Cc2ccc(OC)cc2)C(=O)N2CCCC[C@H]2C(=O)N[C@@H](CC(=O)O)C(=O)N2CCC[C@H]2C(=O)N[C@@H](CN)C(=O)N[C@@H](CC(C)C)C(=O)N2C[C@H](O)C[C@H]2C(=O)N[C@@H](Cc2c[nH]c3ccccc23)C(=O)N[C@@H](CCN)C(=O)N[C@@H](Cc2cn(CC(=O)O)c3ccccc23)C(=O)N1C [Example 10572] (cyclo([Ava]Y(Me)[Pip]DP[Dap]L[Hyp]W[Dab][Trp(1-CH2COOH)][NMeNle][NMeNle]L)),1 to 9.9

# More lines, now with the values ahead:
row,IC50 [nM],Structure (SMILES)
1,1 to 9.9,CCCC[C@H]1C(=O)N(C)[C@@H](CCCC)C(=O)N[C@@H](CCC(=O)O)C(=O)N[C@H](C(N)=O)CCCC(=O)N[C@@H](Cc2ccc(Cl)cc2)C(=O)N2CCCC[C@H]2C(=O)N[C@@H](CC(N)=O)C(=O)N2CCC[C@H]2C(=O)N[C@@H](CN)C(=O)N[C@@H](CC(C)C)C(=O)N2C[C@H](O)C[C@H]2C(=O)N[C@@H](Cc2c[nH]c3ccccc23)C(=O)N[C@@H](CCN)C(=O)N[C@@H](Cc2cn(CC(=O)O)c3ccccc23)C(=O)N1C [Example 10557] ([Phe(4-Cl)][Pip]NP[Dap]L[Hyp]W[Dab][Trp(1-CH2COOH)][NMeNle][NMeNle]E[Aad]-NH2; lactam N-14)
2,1 to 9.9,CCCC[C@H]1C(=O)N(C)[C@@H](CCCC)C(=O)N[C@@H](CCC(=O)O)C(=O)N[C@H](C(N)=O)CCCC(=O)N[C@@H](Cc2ccc(O)cc2)C(=O)N2CCCC[C@H]2C(=O)N[C@@H](CC(N)=O)C(=O)N2CCC[C@H]2C(=O)N[C@@H](CN)C(=O)N[C@@H](CC(C)C)C(=O)N2C[C@H](O)C[C@H]2C(=O)N[C@@H](Cc2c[nH]c3ccccc23)C(=O)N[C@@H](CCN)C(=O)N[C@@H](Cc2cn(CC(=O)O)c3ccccc23)C(=O)N1C [Example 10561] (Y[Pip]NP[Dap]L[Hyp]W[Dab][Trp(1-CH2COOH)][NMeNle][NMeNle]E[Aad]-NH2; lactam N-14)
3,1 to 9.9,CCCC[C@H]1C(=O)N(C)[C@@H](CCCC)C(=O)N[C@@H](CCC(=O)O)C(=O)N[C@H](C(N)=O)CCCC(=O)N[C@@H](Cc2ccc(OC)cc2)C(=O)N2CCCC[C@H]2C(=O)N[C@@H](CC(N)=O)C(=O)N2CCC[C@H]2C(=O)N[C@@H](CN)C(=O)N[C@@H](CC(C)C)C(=O)N2C[C@H](O)C[C@H]2C(=O)N[C@@H](Cc2c[nH]c3ccccc23)C(=O)N[C@@H](CCN)C(=O)N[C@@H](Cc2cn(CC(=O)O)c3ccccc23)C(=O)N1C [Example 10563] (Y(Me)[Pip]NP[Dap]L[Hyp]W[Dab][Trp(1-CH2COOH)][NMeNle][NMeNle]E[Aad]-NH2; lactam N-14)
4,1 to 9.9,CCCC[C@H]1C(=O)N(C)[C@@H](CCCC)C(=O)N[C@@H](CC(C)C)C(=O)NCCC[C@@H](N)C(=O)N[C@@H](Cc2ccc(F)cc2)C(=O)N2CCCC[C@H]2C(=O)N[C@@H](CC(N)=O)C(=O)N2CCC[C@H]2C(=O)N[C@@H](CN)C(=O)N[C@@H](CC(C)C)C(=O)N2C[C@H](O)C[C@H]2C(=O)N[C@@H](Cc2c[nH]c3ccccc23)C(=O)N[C@@H](CCN)C(=O)N[C@@H](Cc2cn(CC(=O)O)c3ccccc23)C(=O)N1C [Example 10566] (H-[dOrn][Phe(4-F)][Pip]NP[Dap]L[Hyp]W[Dab][Trp(1-CH2COOH)][NMeNle][NMeNle]L; lactam 1-C)
5,1 to 9.9,CCCC[C@H]1C(=O)N(C)[C@@H](CCCC)C(=O)N[C@@H](CC(C)C)C(=O)NCCC[C@@H](N)C(=O)N[C@@H](Cc2ccc(O)cc2)C(=O)N2CCCC[C@H]2C(=O)N[C@@H](CC(N)=O)C(=O)N2CCC[C@H]2C(=O)N[C@@H](CN)C(=O)N[C@@H](CCC(=O)O)C(=O)N2C[C@H](O)C[C@H]2C(=O)N[C@@H](Cc2c[nH]c3ccccc23)C(=O)N[C@@H](CCN)C(=O)N[C@@H](Cc2cn(CC(=O)O)c3ccccc23)C(=O)N1C [Example 10568] (H-[dOrn]Y[Pip]NP[Dap]E[Hyp]W[Dab][Trp(1-CH2COOH)][NMeNle][NMeNle]L; lactam 1-C)
